{"source": "patent US20140011889A1", "about": "“Resveratrol-Containing Compositions and Methods of Use for Cardiac-Related Diseases” (Resveratrol Partners, LLC, priority 2010, published 2014)", "key": {"[1]": {"tested_on": "isolated perfused rat hearts", "test": "Myocardial infarct size, TTC staining (Example 6)", "format": "in vivo, Sprague-Dawley rats", "experimental": "Infarct size estimation. Infarct size was measured using the triphenyl tetrazolium chloride (TTC) staining method. Malik et al. […] After two hours of reperfusion, 40 ml of 1% (w/v) solution of TTC in phosphate buffer was infused into the aortic cannula, and the heart samples were stored at −70° C. for subsequent analysis. Sections (0.8 mm) of frozen heart were fixed in 2% paraformaldehyde, placed between two cover slips and digitally imaged using a Microtek ScanMaker 600z (Microtek, USA). To quantitate the areas of infarct in pixels, a standard National Institutes of Health image program was used. The infarct size was quantified and expressed in pixels. At the end of each experiment the hearts were either subjected to TTC staining to determine infarct size or TUNEL staining to detect apoptosis."}, "reactive oxygen species": {"tested_on": "reactive oxygen species", "test": "Intracellular ROS by CM-H2DCFDA fluorescence in I/R heart", "format": "in vivo, rat", "conditions": "IR heart, FIG. 19", "quoted_text": "The dye was injected intravenously, prior to induction of ischemia/reperfusion, and at the end of the experiments, the level of fluorescence was determined for the generation of ROS by measuring the fluorescent oxidation product CM-DCF in the cytosol, at an excitation wavelength of 480 nm and an emission wavelength of 520 nm."}, "IR rat heart": {"tested_on": "IR rat heart", "test": "Isolated working rat heart I/R: cardiac function, infarct size, apoptosis (Example 7)", "format": "in vivo, Sprague-Dawley rats", "conditions": "resveratrol 5 mg/kg/day or Longevinex 100 mg/kg/day, 21 days", "experimental": "Methods. Animals. […] Hattori et al., Am. J. Physiol. Heart. Circ. […] Mukherjee et al., Can. J. Pharmol. […] Isolated working heart preparation and assessment of cardiac function. After completing the feeding protocol, the animals were anesthetized with sodium pentobarbital (80 mg/kg, i.p.) (Abbott Laboratories, North Chicago, Ill., USA), and […] heparin sodium (500 IU/kg, i.v.) (Elkins-Sinn Inc., Cherry Hill, N.J., USA) was used as an anticoagulant. […] At the end of 10 min, baseline cardiac function like heart rate (HR, beats/min), aortic flow (AF, ml/min), coronary flow (CF, ml/min), left ventricular developed pressure (LVDP, mmHg) and first derivative of developed pressure (LVdp/dt, mmHg/sec) were recorded. […] Infarct size was measured according to the TTC method. […] To quantitate the areas of infarct in pixels, standard NIH image program was used. The infarct size was quantified and expressed in pixels. […] The fluorescence staining was viewed with a fluorescence microscope (AXIOPLAN2 IMAGING, Carl Zeiss Microimaging Inc., New York) at […] for green fluorescence of fluorescein and at 620 nm for red fluorescence of propidium iodide. The number of apoptotic cells was counted and expressed as a percent of total myocyte population."}, "brain tissue": {"tested_on": "brain tissue", "test": "Gene expression in brain tissue", "format": "in vivo, mice", "conditions": "mouse brain tissue", "text": "Similar effects have been observed in non-heart tissue."}, "[2]": {"tested_on": "biological processes (GO), cardiac tissue", "test": "Biological processes (GO) affected by altered gene expression in cardiac tissue", "format": "in vivo, mice"}}, "data": [{"smiles": "Oc1ccc(/C=C/c2cc(O)cc(O)c2)cc1", "note": "[resveratrol, 3,4′,5-trihydroxy-trans-stilbene]", "values": [{"measurement": "myocardial infarct size", "setting": "[1]; 2.5 and 25 mg/kg", "value": "significantly reduced"}, {"measurement": "myocardial infarct size", "setting": "[1]; above 50 mg/kg", "value": "significant increased"}, {"measurement": "intracellular ROS concentration compared to control", "setting": "reactive oxygen species", "value": "lowered"}, {"measurement": "cardiac output function (aortic flow, coronary flow, LVDP, LVmax dp/dt)", "setting": "IR rat heart; 2 hour reperfusion", "value": "improved"}, {"measurement": "myocardial infarct size and cardiomyocyte apoptosis", "setting": "IR rat heart; 2 h reperfusion", "value": "reduce"}, {"measurement": "genes with altered expression, treatment and calorie reduced diets, number", "setting": "brain tissue", "value": 10, "unit": "genes"}, {"measurement": "genes changed, GO: 0006596 Polyamine Biosynthetic Process", "setting": "[2]; 5 genes in series", "value": 2}, {"measurement": "genes changed, GO: 0006625 Protein Targeting To Peroxisome", "setting": "[2]; 5 genes in series", "value": 2}, {"measurement": "genes changed, GO: 0006983 ER Overload Response", "setting": "[2]; 5 genes in series", "value": 2}, {"measurement": "genes changed, GO: 0006353 Transcription Termination", "setting": "[2]; 6 genes in series", "value": 2}, {"measurement": "genes changed, GO: 0045351 Interferon Type I Biosynthetic Process", "setting": "[2]; 6 genes in series", "value": 2}, {"measurement": "genes changed, GO: 0001958 Endochondral Ossification", "setting": "[2]; 8 genes in series", "value": 2}, {"measurement": "genes changed, GO: 0007091 Mitotic Metaphase/Anaphase Transition", "setting": "[2]; 8 genes in series", "value": 2}, {"measurement": "genes changed, GO: 0007143 Female Meiosis", "setting": "[2]; 8 genes in series", "value": 2}, {"measurement": "genes changed, GO: 0045577 Regulation Of B Cell Differentiation", "setting": "[2]; 8 genes in series", "value": 2}, {"measurement": "genes changed, GO: 0046330 Positive Regulation Of JNK Cascade", "setting": "[2]; 8 genes in series", "value": 2}, {"measurement": "genes changed, GO: 0006825 Copper Ion Transport", "setting": "[2]; 9 genes in series", "value": 3}, {"measurement": "genes changed, GO: 0033554 Cellular Response To Stress", "setting": "[2]; 14 genes in series", "value": 3}, {"measurement": "genes changed, GO: 0006888 ER To Golgi Vesicle-Mediated Transport", "setting": "[2]; 16 genes in series", "value": 3}, {"measurement": "genes changed, GO: 0006919 Caspase Activation", "setting": "[2]; 16 genes in series", "value": 3}, {"measurement": "genes changed, GO: 0000723 Telomere Maintenance", "setting": "[2]; 17 genes in series", "value": 3}, {"measurement": "genes changed, GO: 0030041 Actin Filament Polymerization", "setting": "[2]; 17 genes in series", "value": 3}, {"measurement": "genes changed, GO: 0043280 Positive Regulation Of Caspase Activity", "setting": "[2]; 17 genes in series", "value": 3}, {"measurement": "genes changed, GO: 0051016 Barbed-End Actin Filament Capping", "setting": "[2]; 17 genes in series", "value": 3}, {"measurement": "genes changed, GO: 0008299 Isoprenoid Biosynthetic Process", "setting": "[2]; 19 genes in series", "value": 3}, {"measurement": "genes changed, GO: 0006446 Regulation Of Translational Initiation", "setting": "[2]; 20 genes in series", "value": 4}, {"measurement": "genes changed, GO: 0043281 Regulation Of Caspase Activity", "setting": "[2]; 27 genes in series", "value": 5}, {"measurement": "genes changed, GO: 0008064 Regulation Of Actin Polymerization And/Or Depolymerization", "setting": "[2]; 30 genes in series", "value": 4}, {"measurement": "genes changed, GO: 0050673 Epithelial Cell Proliferation", "setting": "[2]; 30 genes in series", "value": 4}, {"measurement": "genes changed, GO: 0005977 Glycogen Metabolic Process", "setting": "[2]; 31 genes in series", "value": 7}, {"measurement": "genes changed, GO: 0030832 Regulation Of Actin Filament Length", "setting": "[2]; 31 genes in series", "value": 4}, {"measurement": "genes changed, GO: 0051258 Protein Polymerization", "setting": "[2]; 32 genes in series", "value": 6}, {"measurement": "genes changed, GO: 0006112 Energy Reserve Metabolic Process", "setting": "[2]; 35 genes in series", "value": 7}, {"measurement": "genes changed, GO: 0048193 Golgi Vesicle Transport", "setting": "[2]; 37 genes in series", "value": 6}, {"measurement": "genes changed, GO: 0008154 Actin Polymerization And/Or Depolymerization", "setting": "[2]; 39 genes in series", "value": 6}, {"measurement": "genes changed, GO: 0006413 Translational Initiation", "setting": "[2]; 40 genes in series", "value": 6}, {"measurement": "genes changed, GO: 0043085 Positive Regulation Of Enzyme Activity", "setting": "[2]; 40 genes in series", "value": 5}, {"measurement": "genes changed, GO: 0045454 Cell Redox Homeostasis", "setting": "[2]; 40 genes in series", "value": 6}, {"measurement": "genes changed, GO: 0005976 Polysaccharide Metabolic Process", "setting": "[2]; 42 genes in series", "value": 9}, {"measurement": "genes changed, GO: 0007018 Microtubule-Based Movement", "setting": "[2]; 72 genes in series", "value": 9}, {"measurement": "genes changed, GO: 0007178 Transmembrane Receptor Protein Serine/Threonine Kinase Signaling Pathway", "setting": "[2]; 75 genes in series", "value": 7}, {"measurement": "genes changed, GO: 0006511 Ubiquitin-Dependent Protein Catabolic Process", "setting": "[2]; 109 genes in series", "value": 9}, {"measurement": "genes changed, GO: 0019941 Modification-Dependent Protein Catabolic Process", "setting": "[2]; 111 genes in series", "value": 9}, {"measurement": "genes changed, GO: 0006457 Protein Folding", "setting": "[2]; 124 genes in series", "value": 13}, {"measurement": "genes changed, GO: 0007017 Microtubule-Based Process", "setting": "[2]; 155 genes in series", "value": 12}, {"measurement": "genes changed, GO: 0006605 Protein Targeting", "setting": "[2]; 161 genes in series", "value": 12}, {"measurement": "genes changed, GO: 0008380 RNA Splicing", "setting": "[2]; 162 genes in series", "value": 12}, {"measurement": "genes changed, GO: 0006281 DNA Repair", "setting": "[2]; 178 genes in series", "value": 13}, {"measurement": "genes changed, GO: 0006974 Response To DNA Damage Stimulus", "setting": "[2]; 217 genes in series", "value": 15}, {"measurement": "genes changed, GO: 0044262 Cellular Carbohydrate Metabolic Process", "setting": "[2]; 221 genes in series", "value": 18}, {"measurement": "genes changed, GO: 0050790 Regulation Of Catalytic Activity", "setting": "[2]; 241 genes in series", "value": 21}, {"measurement": "genes changed, GO: 0005975 Carbohydrate Metabolic Process", "setting": "[2]; 316 genes in series", "value": 21}, {"measurement": "genes changed, GO: 0007264 Small Gtpase Mediated Signal Transduction", "setting": "[2]; 320 genes in series", "value": 22}, {"measurement": "genes changed, GO: 0006412 Translation", "setting": "[2]; 338 genes in series", "value": 25}, {"measurement": "genes changed, GO: 0006512 Ubiquitin Cycle", "setting": "[2]; 356 genes in series", "value": 27}, {"measurement": "genes changed, GO: 0006886 Intracellular Protein Transport", "setting": "[2]; 357 genes in series", "value": 26}, {"measurement": "genes changed, GO: 0006091 Generation Of Precursor Metabolites And Energy", "setting": "[2]; 390 genes in series", "value": 24}, {"measurement": "genes changed, GO: 0007010 Cytoskeleton Organization And Biogenesis", "setting": "[2]; 403 genes in series", "value": 26}, {"measurement": "genes changed, GO: 0046907 Intracellular Transport", "setting": "[2]; 523 genes in series", "value": 43}, {"measurement": "genes changed, GO: 0009059 Macromolecule Biosynthetic Process", "setting": "[2]; 525 genes in series", "value": 35}, {"measurement": "genes changed, GO: 0015031 Protein Transport", "setting": "[2]; 581 genes in series", "value": 38}, {"measurement": "genes changed, GO: 0045184 Establishment Of Protein Localization", "setting": "[2]; 610 genes in series", "value": 38}, {"measurement": "genes changed, GO: 0051649 Establishment Of Cellular Localization", "setting": "[2]; 653 genes in series", "value": 45}, {"measurement": "genes changed, GO: 0008104 Protein Localization", "setting": "[2]; 663 genes in series", "value": 38}, {"measurement": "genes changed, GO: 0044249 Cellular Biosynthetic Process", "setting": "[2]; 710 genes in series", "value": 45}, {"measurement": "genes changed, GO: 0006996 Organelle Organization And Biogenesis", "setting": "[2]; 897 genes in series", "value": 53}, {"measurement": "genes changed, GO: 0009058 Biosynthetic Process", "setting": "[2]; 979 genes in series", "value": 60}, {"measurement": "share of the 220 biological processes with affected genes, calorie restricted mice", "setting": "[2]; mouse cardiac tissue", "value": "failed to affect any genes in any of these processes"}]}]}
